Measured values as given in publication PMC5438648, “Identifying the structure-activity relationship of leelamine necessary for inhibiting intracellular cholesterol transport” (Oncotarget, 2017).
Where two headings read alike, the source gives them in different places.

Legend:
UACC 903 melanoma cells [1] = experiment: MTS cell viability assay, UACC 903 melanoma cells; type: cell-based, human; details: 72 hours treatment, read-out: Melanoma cell killing efficacy (IC50 values) UACC 903 (Melanoma cells)
Procedure: (§1) Dr. Craig Myers, Penn State College of Medicine, Hershey, PA provided normal human fibroblast cell line FF2441. Mutant V600E-BRAF human melanoma cell line 1205 Lu was provided by Dr. Herlyn; Wistar Institute, Philadelphia, PA and UACC 903 was provided by Dr. Mark Nelson; University of Arizona, Tucson, AZ. Cell lines were maintained in a 37°C humidified 5% CO2 atmosphere incubator and periodically monitored for phenotypic, genotypic characteristics, and tumorigenic potential to validate and confirm cell line identity.
(§2) In brief, 5 × 10^3 cells per well in 100 μL of media were seeded and grown in a 96-well plate for 48 to 72 hours and treated with either DMSO vehicle control or 0.62 to 100 μmol/L of compounds for 72 hours. IC50 values for each compound in μmol/L for respective cell lines were measured from three independent experiments using GraphPad Prism version 4.01 (GraphPad Software, La Jolla, CA). In addition, recovery and viability assessment was also measured with these compounds co-treated simultaneously with 10 nmol/L of bafilomycin A1 (BafA1) or 1 mMol/L β-cyclodextrin and the viability was measured using the MTS assay after 24 hours.

[2] = tested on: normal human fibroblast cell line FF2441; experiment: MTS cell viability assay, normal fibroblasts; type: cell-based; details: 72 hours treatment, read-out: Melanoma cell killing efficacy (IC50 values) FF2441 (Normal Cells)
Procedure: as §1, §2

1205 Lu melanoma cells = experiment: MTS cell viability assay, 1205 Lu melanoma cells; type: cell-based, human; details: 72 hours treatment, read-out: Melanoma cell killing efficacy (IC50 values) 1205 Lu (Melanoma cells)
Procedure: as §1, §2

UACC 903 melanoma cells [3] = experiment: Tumorigenicity assessment, xenografted melanoma tumors; type: in vivo; details: 80 mg/kg oral daily; UACC 903 xenograft, athymic nu/nu mice
Procedure: (§3) 1 × 10^6 UACC 903 cells in 0.2 mL of DMEM supplemented with 10% FBS were subcutaneously injected above both left and right rib cages of 4–6 week old female athymic nu/nu mice. Six to eight days later, mice were randomly sorted into vehicle control 10% PEG (Poly ethylene glycol) and experimental compound 4a or leelamine groups, followed by daily oral administration of 80 mg/kg body weight. Volume of developing tumors in mm^3 was measured on alternate days using calipers along with assessment of body weights.

[4] = Body weight and sub-chronic toxicity assessment (blood biomarkers) in tumor-bearing mice; type: in vivo; details: 80 mg/kg oral daily; for body weights of mice: 24 days of treatment
Procedure: as §3
At the end of tumorigenicity assessment, blood was collected from each euthanized animal in a serum separator tube with lithium heparin (BD Microtainer), following cardiac puncture and analyzed for levels of ALT (Alanine aminotransferase), AST (Aspartate aminotransferase), ALKP (Alkaline phosphatase), ALB (Albumin), GLB (Globulin), TPR (Total Protein), TBIL (Total bilirubin), BUN (Blood urea nitrogen), GLU (Glucose), CK (Creatine kinase), CAL (Calcium).

melanoma cells = experiment: Autophagic flux: Western blot of p62 and LC3B; type: cell-based, human; details: Western blotting, 24 hours
Description: (§4) Cell lysates were harvested and processed as described in refs [14, 29, 31, 34]. […] Protein lysates were collected for Western blotting analysis. Blots were probed with antibodies according to each supplier's recommendations: antibodies to IGF-1R, total AKT, phosphor AKT (Ser473), total PRAS40, phospho-PRAS40 (Thr246), total ERK1/2, phospho-ERK1/2 (Thr202/Tyr 204), total CDK2, phospho-CDK2 (Thr160), p62, LC3B, total STAT, phospho-STAT3 (Tyr705), caspase 3 and cleaved PARP from Cell Signaling Technology (Danvers, MA); cyclin D1, α-enolase and secondary antibodies conjugated with horseradish peroxidase from Santa Cruz Biotechnology (Santa Cruz, CA). Immunoblots were developed using the enhanced chemiluminescence (ECL) detection system (Thermo Fisher Scientific, Rockford, IL).

[5] = tested on: UACC 903 melanoma cell line; experiment: Western blot of signaling pathways (PI3K/AKT, STAT3, MAPK; pERK1/2); type: cell-based, human; details: active 3-5 μmol/L, inactive 30-50 μmol/L, 24 hours
Description: as §4

UACC 903 cells = experiment: Endocytosis: Alexa Fluor 488 transferrin uptake; type: cell-based, human; details: UACC 903, 2 hours treatment
Procedure: The endocytotic capacity of the cells was measured as described in Kuzu et al. 2014 [14]. Briefly, UACC 903 cells were seeded into chamber slides and treated with the particular agents for 2 hours. Next, Alexa Flor 488 tagged transferrin protein was added at a final concentration of 5 μg/mL and incubated for 30 minutes. Cells were then fixed on the slide with 4% paraformaldehyde and analyzed by fluorescence microscopy as described previously. Measurement of compounds effects on lysosomotropism was assessed through the appearance of cellular vacuolization of UACC 903 cells growing at 70 to 80% confluency on 100 mm culture dishes compared to controls. For some experimental conditions cells were co-treated with 10 nmol/L of BafA1 for 3 hours. Light microscopic images were used to assess cellular vacuolization.

[6] = Pharmacokinetics of leelamine in the serum of mice; type: in vivo; details: 80 mg/kg oral, Swiss Webster mice
Procedure: Leelamine was extracted from serum as reported previously. Swiss Webster mice were treated orally with 80 mg/kg body weight of leelamine, animals were euthanized and blood drawn by cardiac puncture at various time periods over 36 hours. Samples were kept at room temperature for 30 minutes followed by serum separation by centrifugation for 5 minutes at 5,000 rpm. Next, 20 μL of the collected serum was added to 80 μL of acetonitrile along with 5 μL of propranolol (RS)-1-(1-methylethylamino)-3-(1-naphthyloxy)propan-2-ol), which served as an internal standard (transition of m/z 259.9 to 116.0). Solution was vortexed for 30 seconds and then centrifuged at 10,000 rpm for 10 minutes. Supernatant was transferred to the auto sampler vials and subject to liquid chromatography-mass spectrometry using LC-MS/MS 2010 EV system (Shimadzu, Tokyo, Japan).

[7] = Dose escalation for oral administration of leelamine; type: in vivo; details: 80 mg/kg body weight (QOD) over 14 days, Swiss Webster mice
Procedure: To determine the effective oral dosage of leelamine, a dose escalation study was conducted in 4–6 week old Swiss Webster mice. […] Animals were weighed daily to ascertain potential toxic effects leading to changes in body weight. At the end of treatment, blood was collected from each sacrificed animal in a serum separator tube with lithium heparin (BD Microtainer) following cardiac puncture and levels of serum biomarkers of major organ toxicity were measured. In addition, vital organs including liver, spleen, kidney, intestine, lung and heart from control and experimental animals were collected on day 14, formalin fixed, paraffin-embedded, H&E stained and analyzed microscopically for changes in cellular morphology or tissue architecture.

Compound	IC50 (UACC 903 melanoma cells [1]; Homo sapiens, UACC-903, 72 h)	IC50 [2]	IC50 (1205 Lu melanoma cells; Homo sapiens, 1205Lu, 72 h)	effect on PI3K/AKT, STAT3 and MAPK signaling pathways [5]	other results
CC(C)c1ccc2c(c1)CCC1[C@](C)(CNC(=O)c3ccccc3)CCC[C@]21C (stereo partly drawn) [5d, N-(((1R, 4aS)-7-isopropyl-1,4a-dimethyl-1,2,3,4,4a, 9, 10, 10a-octahydrophenanthren-1-yl)methyl) benzamide]	> 100 µM	> 100 µM	> 100 µM	–	–
CNC(=O)[C@]1(C)CCC[C@]2(C)C3CCC(C(C)C)=CC3=CCC21 (stereo partly drawn) [3b, (1R, 4aR)-N, 1,4a-trimethyl-7-(propan-2-yl)-1,2,3,4,4a, 4b, 5,6, 10, 10a-decahydrophenanthrene-1-carboxamide]	> 100 µM	> 100 µM	> 100 µM	–	–
CCN(CC)C[C@]1(C)CCC[C@]2(C)C3CCC(C(C)C)=CC3=CCC12 (stereo partly drawn) [4c, N-ethyl-N-(((1R, 4aR)-7-isopropyl-1,4a-dimethyl-1,2,3,4,4a, 4b,5,6,10,10a-decahydrophenanthren-1-yl)methyl) ethanamine]	24.4 ± 1.4 µM	> 100 µM	24.3 ± 2.5 µM	–	–
CNC[C@]1(C)CCC[C@]2(C)C3CCC(C(C)C)=CC3=CCC12 (stereo partly drawn) [4b, {[(1R, 4aR)-1,4a-dimethyl-7-(propan-2-yl)-1,2,3,4,4a, 4b, 5,6,10,10a-decahydrophenanthren-1-yl]methyl}(methyl) amine]	2.3 µM	9.33 ± 1.2 µM	2.3 µM	–	–
CC(C)C1=CC2=CCC3[C@](C)(CN)CCC[C@]3(C)C2CC1 (stereo partly drawn) [4a, [(1R, 4aR)-1,4a-dimethyl-7-(propan-2-yl)-1,2,3,4,4a, 4b, 5,6,10,10a-decahydrophenanthren-1-yl] methanamine]	2.1 µM	8.33 ± 0.4 µM	2.9 µM	inhibited	reduction of tumor volume compared with vehicle control (UACC 903 melanoma cells [3]): 51%; body weights of mice [4]: No significant differences; blood parameters (ALT, AST, ALKP, ALB, GLB, TPR, TBIL, BUN, GLU, CK and CAL) indicative of organ-related sub-chronic toxicity ([4]; end of study): fell in the normal range; autophagic flux (p62 and LC3B proteins) (melanoma cells): dose dependently induced accumulation of p62 and LC3B proteins
CC(=O)NC[C@]1(C)CCC[C@]2(C)c3ccc(C(C)C)cc3CCC12 (stereo partly drawn) [5c, N-{[(1R, 4aS)-1,4a-dimethyl-7-(propan-2-yl)-1,2,3,4,4a, 9, 10, 10a-octahydrophenanthren-1-yl]methyl} acetamide]	89.4 ± 3.3 µM	> 100 µM	> 100 µM	did not affect these pathways	–
CC(C)c1ccc2c(c1)CCC1[C@](C)(CNCc3ccccc3)CCC[C@]21C (stereo partly drawn) [5e, N-benzyl-1-((1R, 4aS)-7-isopropyl-1,4a-dimethyl-1,2,3,4,4a, 9, 10, 10a-octahydrophenanthren-1-yl) methanamine]	6 µM	3.13 ± 0.4 µM	7 µM	–	IC50 (1205 Lu melanoma cells): 7.05 ± 0.7 µM
CC(C)c1ccc2c(c1)CCC1[C@](C)(CNC(c3ccccc3)(c3ccccc3)c3ccccc3)CCC[C@]21C (stereo partly drawn) [5f, {[(1R, 4aS)-1,4a-dimetyl-7-(propan-2-yl)-1,2,3,4,4a, 9, 10, 10a-octahydrophenanthren-1-yl]methyl} (triphenylmethyl) amine]	> 100 µM	> 100 µM	> 100 µM	–	–
CCN(CC)C(=O)[C@]1(C)CCC[C@]2(C)C3CCC(C(C)C)=CC3=CCC21 (stereo partly drawn) [3c, (1R, 4aR)-N, N-diethyl-1,4a-dimethyl-7-(propan-2-yl)-1,2,3,4,4a, 4b, 5,6, 10, 10a-decahydrophenanthrene-1-carboxamide]	> 100 µM	> 100 µM	> 100 µM	–	–
CC(C)c1ccc2c(c1)CCC1[C@](C)(CNC(=O)C(F)(F)F)CCC[C@]21C (stereo partly drawn) [5a, N-{[(1R, 4aS)-1,4a-dimethyl-7-(propan-2-yl)-1,2,3,4,4a, 9, 10, 10a-octahydrophenanthren-1-yl]methyl}-2,2,2-trifluoroacetamide]	1.2 µM	5.17 ± 0.1 µM	2 µM	inhibited	autophagic flux (p62 and LC3B proteins) (melanoma cells): dose dependently induced accumulation of p62 and LC3B proteins
CC(C)C1=CC2=CC[C@@H]3[C@](C)(CCC[C@@]3(C)C(=O)O)[C@H]2CC1 [Abietic acid, reference compound]	> 100 µM	> 100 µM	> 100 µM	did not affect these pathways	cellular endocytosis (Alexa Fluor conjugated transferrin uptake) (UACC 903 cells): did not occur
CC(C)C1=CC2=CCC3[C@](C)(CCC[C@@]3(C)C(N)=O)C2CC1 (stereo partly drawn) [3a, (1R, 4aR)-7-isopropyl-1,4a-dimethyl-1,2,3,4,4a,4b,5,6,10,10a-decahydrophenanthrene-1-carboxamide]	70.1 ± 1.8 µM	> 100 µM	81 ± 2.1 µM	–	–
[(1R, 4aR)-1,4a-dimethyl-7-(propan-2-yl)-1, 2, 3, 4, 4a, 4b, 5, 6, 7,10a-decahydrophenanthren-1-yl] methanol [2b]	–	–	–	–	IC50 (UACC 903 melanoma cells [1]): 52.6 ± 1.4 µM; IC50 (1205 Lu melanoma cells): 60.3 ± 1.6 µM
CC(C)c1ccc2c(c1)CCC1C(C)(CN)CCCC21C (stereo not shown) [Leelamine]	1.35 ± 0.1 µM	8.91 ± 0.6 µM	1.93 ± 0.2 µM	inhibited	time present in the serum ([6]; followed over 36 hours): ≤ 24 h; Tmax ([6]; mouse, serum, LC-MS/MS, read-out: time of maximum concentration in serum): 6 h; body weights of mice [4]: No significant differences; autophagic flux (p62 and LC3B proteins) (melanoma cells): dose dependently induced accumulation of p62 and LC3B proteins; weight loss on repeated oral dosing [7]: did not cause any weight loss
CC(C)c1ccc2c(c1)CCC1[C@](C)(CNC(=O)C(Br)(Br)Br)CCC[C@]21C (stereo partly drawn) [5b, N-{[(1R, 4aS)-1,4a-dimethyl-7-(propan-2-yl)-1,2,3,4,4a, 9, 10, 10a-octahydrophenanthren-1-yl]methyl}-2,2,2-tribromoacetamide]	1 µM	4.1 ± 0.2 µM	1.8 µM	–	–
